In patent US20070021412A1, “Treatment of gastrointestinal dysfunction and related stress with an enantiomerically-pure (S) 2,3-benzodiazepine” (Vela Pharmaceuticals, Inc., priority 2003, published 2007):

Tests used:
[1] = test system: Colonic Propulsive Motility; test: Glass Bead Test (stretch-stimulated colonic propulsion); format: in vivo, mouse; settings: for Expulsion Time Mean ± SEM: 30 minutes before bead, cutoff 30 minutes, in min
Procedure: In the test, usually performed in mice, a 3-mm glass bead is inserted through the anus into the distal colon (using a glass rod) to a depth of 2 cm. The time to expel the glass bead is then measured; normally, the glass bead is expelled in approximately 10 minutes. This model is especially sensitive to compounds with inhibitory effects on stretch-stimulated propulsive motor activity; as such, it is often used as an animal model for IBS. A test compound that inhibits stretch-stimulated-colonic propulsive motility may be used to treat gastrointestinal dysfunction, including IBS. Both enantiomerically-pure (R)- and (S)-tofisopam inhibited propulsive motility to a greater extent than the racemate.
The glass bead test is commmonly used to evaluate the ability of compounds to affect stimulated colonic propulsion. In the test, usually performed in mice, a 3-mm glass bead is inserted through the anus into the distal colon (using a glass rod) to a depth of 2 cm. The time to expel the glass bead is then measured; normally, the glass bead is expelled in approximately 10 minutes. This model is especially sensitive to compounds with inhibitory effects on stretch-stimulated propulsive motor activity; as such, it is often used as an animal model for IBS.
In each study, (RS)-, (R)- and (S)-tofisopam were evaluated for their ability to increase or decrease the time for expulsion of the glass bead. Test compounds were administered 30 minutes prior to insertion of the bead, and a maximum time cutoff of 30 minutes to expulsion was used.

[2] = test system: Gastrointestinal Propulsive Motility; test: Charcoal Meal Test (basal gastrointestinal propulsion); format: in vivo, rat; settings: for % Inhibition (gastrointestinal propulsive motility): numbers in parentheses indicate % increase
Procedure: The charcoal meal test is a standard method for evaluating the effect of compounds on basal, nonstimulated propulsive motility of the stomach and small intestine. It is generally considered predictive of a compound's ability to inhibit or accelerate basal gastric propulsion in humans. In the test, usually performed in rats, nonactivated charcoal powder is administered by oral gavage. Sixty minutes after administration of the charcoal suspension, rats were sacrificed by CO2 inhalation, the stomach and small intestine were removed, and the distance between the pylorus and the furthest progression of the charcoal meal was measured and compared to the distance between the pylorus and the ileocecal junction. This model is especially sensitive to compounds with the ability to increase or decrease basal propulsive motor activity of the stomach and small intestine. It is therefore often used to predict the potential for compounds to exert antidiarrheal or anticonstipatory effects, as well as to predict the potential for compounds to produce diarrhea or constipation as a side-effect. Two charcoal meal test were performed in rats. In each study, (RS)-, (R)-and (S)-tofisopam were evaluated for their for their ability to increase or decrease the percent of the intestine traversed by a charcoal meal. Test compounds were administered 30 minutes prior to administration of the charcoal meal.

[3] = test system: visceral hypersensitivity, pain, and bloating induced by colonic distension; test: Visceral hypersensitivity, pain and bloating test (abdominal contractions after colonic distension and acetic acid); format: in vivo, rat; settings: 32 mg/kg p.o.
Procedure: In yet another gastrointestinal disorder model, the visceral pain and bloating test, the ability of (R)- and (S)-tofisopam to inhibit abdominal contractions in the rat was investigated. (R)- and (S)-tofisopam were able to inhibit abdominal contractions to a greater extent than racemic tofisopam. The effects of (R)-tofisopam, (S)-tofisopam, and (RS)-tofisopam were evaluated for alleviating visceral hypersensitivity, pain, and bloating. […] Eur. J. Pharmacol. 324: 211-217 (1997); Langlois et al. Eur. J. Pharmacol. 318: 141-144 (1996)). The acetic acid makes the colon hypersensitive, modeling the visceral hypersensitivity seen in IBS. The colonic distension models the pain and bloating seen in IBS, and causes abdominal contractions in rats. In the control group 13.8±2.0 abdominal contractions were measured over the 10-minute period of observation.

[4] = test system: stress-induced ulcer formation; test: Water immersion stress-induced ulcers test; format: in vivo, rat; settings: for Ulceration Index: ulcer score × percentage of stomachs showing ulcers; for Score for the Presence of Ulcers Mean ± SEM: score 0-4, N = 8

CC[C@@H]1C(C)=NN=C(c2ccc(OC)c(OC)c2)c2cc(OC)c(OC)cc21 [(S)-tofisopam, (S)-1-(3,4-dimethoxyphenyl)-4-methyl-5-ethyl-7,8-dimethoxy-5H-2,3-benzodiazepine]
% Inhibition (colonic expulsion) ([1]; 32 mg/kg IP): 100%
Expulsion Time Mean ± SEM ([1]; 32 mg/kg IP): 30.0 ± 0.0
% Inhibition (colonic expulsion) ([1]; 64 mg/kg IP): 100%
Expulsion Time Mean ± SEM ([1]; 64 mg/kg IP): 30.0 ± 0.0
% Intestine Traversed, Mean ± SEM ([2]; first experiment, 64 mg/kg IP): 75.7 ± 3.1%
% Inhibition (gastrointestinal propulsive motility) ([2]; first experiment, 64 mg/kg IP): 7.1%
% Intestine Traversed, Mean ± SEM ([2]; second experiment, 4 mg/kg IP): 79.1 ± 1.3%
% Intestine Traversed, Mean ± SEM ([2]; second experiment, 8 mg/kg IP): 80.9 ± 1.9%
% Intestine Traversed, Mean ± SEM ([2]; second experiment, 16 mg/kg IP): 73.3 ± 1.2%
% Inhibition (gastrointestinal propulsive motility) ([2]; second experiment, 16 mg/kg IP): 1.9%
% Intestine Traversed, Mean ± SEM ([2]; second experiment, 32 mg/kg IP): 60.8 ± 2.8 %
% Inhibition (gastrointestinal propulsive motility) ([2]; second experiment, 32 mg/kg IP): 19.7%
number of abdominal cramps ([3]; vehicle control 18.8±1.8 cramps): 10.4±1.3 cramps
decrease of abdominal cramps ([3]; versus vehicle control): 45%
Ulceration Index ([4]; 16 mg/kg IP): 313
% of Stomachs Showing Ulcers ([4]; 32 mg/kg IP): 38%
Score for the Presence of Ulcers Mean ± SEM ([4]; 32 mg/kg IP): 1.1 ± 0.4
Ulceration Index ([4]; 32 mg/kg IP): 42
% of Stomachs Showing Ulcers ([4]; 64 mg/kg IP): 38%
Score for the Presence of Ulcers Mean ± SEM ([4]; 64 mg/kg IP): 1.3 ± 0.3
Ulceration Index ([4]; 64 mg/kg IP): 47
